Test results as given in US20250325511A1, “DIETARY BUTYRATE” (SOCIETE DES PRODUITS NESTLE S.A., priority 2019, published 2025).
“Also recorded” adds a separate entry of the source.

What was measured:
[1] = system: rabbit gastric lipase followed by porcine pancreatic lipase; experiment: Sequential in vitro digestion SGF (RGL) followed by SIF (PPL), pH-stat
Excerpt: No measurements were taken in the gastric compartment due to limited ionisation of the target fatty acids.

[2] = target: T1, porcine pancreatic lipase (from pancreatin) (Sus scrofa, UniProt P00591)
T1 sequence (P00591 1-450): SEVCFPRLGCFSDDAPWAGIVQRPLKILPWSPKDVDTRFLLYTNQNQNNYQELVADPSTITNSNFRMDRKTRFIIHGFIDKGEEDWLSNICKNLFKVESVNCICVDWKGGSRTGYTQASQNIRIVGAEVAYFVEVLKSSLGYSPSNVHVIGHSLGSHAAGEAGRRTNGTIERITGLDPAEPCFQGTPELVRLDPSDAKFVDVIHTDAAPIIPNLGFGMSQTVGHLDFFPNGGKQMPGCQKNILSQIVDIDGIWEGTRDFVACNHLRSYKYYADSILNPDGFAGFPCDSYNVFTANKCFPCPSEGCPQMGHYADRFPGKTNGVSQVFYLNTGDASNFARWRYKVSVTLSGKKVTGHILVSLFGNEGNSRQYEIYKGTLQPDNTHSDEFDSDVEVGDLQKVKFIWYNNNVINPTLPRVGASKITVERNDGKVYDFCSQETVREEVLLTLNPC
T1 sequence (P02703 23-112 partner): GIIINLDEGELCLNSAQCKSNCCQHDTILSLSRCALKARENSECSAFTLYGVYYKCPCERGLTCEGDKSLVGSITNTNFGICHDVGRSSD

**Q.** For `CCCC(=O)OCC(COC(=O)CCC)OC(=O)CCC` [tributyrin], which “Initial lipolysis rate in SIF during SGF-SIF digestion” value ([1]; after 90 min SGF with rabbit gastric lipase, emulsion with 200 mg fat) is on record?
**A.** Its value is 44.1 ± 8.8 µmol/min.

**Q.** What about the “Hydrolysis in the stomach (gastric compartment of the model)” value ([1]; in words) of the same molecule?
**A.** Its value is “considerable digestion; also recorded: extensive hydrolysis”.

**Q.** What about the “Lipolysis by gastric lipase” value ([1]; indicated by decreased total fatty acid release in SIF after RGL pre-exposure) of the same molecule?
**A.** Its value is ~60%.

**Q.** And the “Initial rate of lipolysis” value ([2]; SIF alone, emulsion with 200 mg fat, pH 6.8, 37° C.)?
**A.** The value was 223 ± 59 µmol/min.

**Q.** And the “Overall extent of lipid digestion” value ([2]; back titration to pH 11.5, after SIF and SGF-SIF (FIG. 2))?
**A.** The value was 101.5±0.9%.
